Test results taken from EPA's ToxRefDB 2.

How the values were obtained:
rat [1] = details: Sub-acute repeat dose toxicity, Oral, Gavage/Intubation, dose end: 14 day, group: systemic
dog [2] = details: Sub-acute repeat dose toxicity; beagle; Oral; Gavage/Intubation; dose end: 14 day; group: systemic; systemic / in life observation / clinical signs / abnormal feces
rat [3] = details: Sub-acute repeat dose toxicity, sprague dawley, Oral, Gavage/Intubation, dose end: 14 day, group: systemic
dog [4] = details: Subchronic oral toxicity in nonrodent, beagle, Feed, dose end: 90 day, group: systemic, systemic / organ weight / ovary / relative to body weight + systemic / organ weight / thyroid gland / relative to body weight
rat [5] = details: Sub-acute dermal toxicity, fischer, Topical, dose end: 2 week, group: systemic, systemic / pathology microscopic / skin / hyperkeratosis + systemic / pathology microscopic / skin / hyperplasia + systemic / pathology …
mouse [6] = details: Carcinogenicity; b6c3f1; Dermal; Topical; dose end: 105 week; group: systemic; systemic / pathology microscopic / skin / hyperplasia + systemic / pathology microscopic / skin / inflammation
mouse [7] = details: Subchronic oral toxicity in rodents, b6c3f1, Dermal, Topical, dose end: 14 week, group: systemic
rat [8] = details: Sub-acute dermal toxicity, wistar, Topical, dose end: 21 day, group: systemic, systemic / in life observation / clinical signs / erythema + systemic / in life observation / clinical signs / skin ulceration + systemic / …
rat [9] = details: Prenatal developmental toxicity study, sprague dawley, Oral, Gavage/Intubation, dose end: 15 GD
dog [10] = details: Subchronic oral toxicity in nonrodent, beagle, Feed, dose end: 90 day, group: systemic
mouse [11] = details: Sub-acute dermal toxicity, b6c3f1, Topical, dose end: 2 week, group: systemic, systemic / pathology gross / skin / [other] + systemic / pathology gross / skin / thickened + systemic / pathology gross / skin / ulcer + …
rat [12] = details: Subchronic dermal toxicity, fischer, Topical, dose end: 14 week, group: systemic
rat [13] = details: Carcinogenicity, fischer, Dermal, Topical, dose end: 105 week, group: systemic
dog [14] = details: Other (NonGuideline or Guideline Not Listed); beagle; Oral; Feed; dose end: 13 week; group: cannot be grouped; systemic / clinical chemistry / thyroxine (t4) / thyroxine (t4), total + systemic / clinical chemistry / triiodothyronine (t3) / …
rat [15] = details: Other (NonGuideline or Guideline Not Listed), Oral, Feed, dose end: 111 PND, group: cannot be grouped
mouse [16] = details: Subchronic oral toxicity in rodents, b6c3f1, Gavage/Intubation, dose end: 13 week, group: systemic, systemic / in life observation / body weight / body weight
mouse [17] = details: Carcinogenicity, b6c3f1, Oral, Gavage/Intubation, dose end: 103 week, group: systemic
rat [18] = details: Subchronic oral toxicity in rodents, fischer, Gavage/Intubation, dose end: 13 week, group: systemic
rat [19] = details: Carcinogenicity; fischer; Oral; Gavage/Intubation; dose end: 103 week; group: systemic; systemic / in life observation / body weight / body weight
[20] = systemic / in life observation / clinical signs / salivation
[21] = systemic / in life observation / clinical signs / urine staining - perineum + systemic / in life observation / clinical signs / salivation
[22] = systemic / clinical chemistry / glucose / glucose + systemic / clinical chemistry / urea nitrogen / urea nitrogen + systemic / clinical …
[23] = systemic / organ weight / lung / absolute + systemic / organ weight / lung / relative to body weight
[24] = systemic / organ weight / lung / absolute + systemic / organ weight / lung / relative to body weight + systemic / organ weight / liver / …
[25] = group: developmental, developmental / developmental malformation / [other] / [other]
[26] = group: maternal, systemic / in life observation / body weight / body weight gain + reproductive / reproductive performance / resorptions / resorptions
[27] = systemic / pathology microscopic / kidney / pigmentation + systemic / pathology microscopic / spleen / hematopoietic cell proliferation
[28] = systemic / pathology microscopic / skin / hyperkeratosis
[29] = systemic / pathology microscopic / skin / hyperkeratosis + systemic / pathology microscopic / skin / hyperplasia + systemic / pathology …
[30] = systemic / pathology gross / skin / [other] + systemic / pathology microscopic / skin / hyperkeratosis + systemic / pathology microscopic / …
[31] = systemic / pathology microscopic / skin / hyperkeratosis + systemic / pathology microscopic / skin / inflammation + systemic / pathology …
[32] = systemic / in life observation / body weight / body weight gain + systemic / in life observation / food consumption / food consumption
[33] = systemic / in life observation / body weight / body weight gain + systemic / in life observation / food consumption / food consumption + …
[34] = systemic / pathology microscopic / liver / hypertrophy + systemic / pathology microscopic / liver / necrosis + systemic / pathology …
[35] = systemic / in life observation / body weight / body weight + systemic / in life observation / mortality / mortality + systemic / pathology …

O=C(O)CCN(C1(C(=O)NO)CCCC1)S(=O)(=O)c1ccc(Oc2ccc(F)cc2)cc1
LEL (rat [1]; [20]): 300 mg/kg/day | NEL (rat [1]; [20]): < 300 mg/kg/day | LOAEL (rat [1]; [21]): > 500 mg/kg/day | NOAEL (rat [1]; [21]): ≥ 500 mg/kg/day | LEL (dog [2]): 250 mg/kg/day | LOAEL (dog [2]): > 250 mg/kg/day | NEL (dog [2]): 50 mg/kg/day | NOAEL (dog [2]): ≥ 250 mg/kg/day | LEL (rat [3]; systemic / clinical chemistry / glucose / glucose + systemic / clinical chemistry / urea nitrogen / urea nitrogen): 150 mg/kg/day | LOAEL (rat [3]; [22]): > 500 mg/kg/day | NOAEL (rat [3]; [22]): ≥ 500 mg/kg/day

N#CCCC(Br)(C#N)CBr (stereo not drawn) [1,2-Dibromo-2,4-dicyanobutane]
LEL (dog [4]): 4.17 mg/kg/day | LOAEL (dog [4]): 4.17 mg/kg/day | NEL (dog [4]): < 4.17 mg/kg/day | NOAEL (dog [4]): < 4.17 mg/kg/day | LEL (rat [5]): 37.5 mg/kg/day | LOAEL (rat [5]): 37.5 mg/kg/day | NEL (rat [5]): < 37.5 mg/kg/day | NOAEL (rat [5]): < 37.5 mg/kg/day | LEL (mouse [6]): 0.6 mg/kg/day | LOAEL (mouse [6]): 0.6 mg/kg/day | NEL (mouse [6]): < 0.6 mg/kg/day | NOAEL (mouse [6]): < 0.6 mg/kg/day | LEL (mouse [7]; [23]): 0.2 mg/kg/day | NEL (mouse [7]; [23]): < 0.2 mg/kg/day | LOAEL (mouse [7]; [24]): > 18 mg/kg/day | NOAEL (mouse [7]; [24]): ≥ 18 mg/kg/day | LEL (rat [8]): 1000 mg/kg/day | LOAEL (rat [8]): 1000 mg/kg/day | NEL (rat [8]): < 1000 mg/kg/day | NOAEL (rat [8]): < 1000 mg/kg/day | LEL (rat [9]; [25]): 100 mg/kg/day | LOAEL (rat [9]; [25]): 100 mg/kg/day | NEL (rat [9]; [25]): 25 mg/kg/day | NOAEL (rat [9]; [25]): 25 mg/kg/day | LEL (rat [9]; [26]): 100 mg/kg/day | LOAEL (rat [9]; [26]): 100 mg/kg/day | NEL (rat [9]; [26]): 25 mg/kg/day | NOAEL (rat [9]; [26]): 25 mg/kg/day | LOAEL (dog [10]; systemic / in life observation / clinical signs / defecation (diarrhea) + systemic / in life observation / clinical signs / emesis): 3.11 mg/kg/day | NOAEL (dog [10]; systemic / in life observation / clinical signs / defecation (diarrhea) + systemic / in life observation / clinical signs / emesis + …): 0.331 mg/kg/day | LEL (dog [10]; [27]): 0.288 mg/kg/day | NEL (dog [10]; [27]): < 0.288 mg/kg/day | LEL (mouse [11]): 75 mg/kg/day | LOAEL (mouse [11]): 75 mg/kg/day | NEL (mouse [11]): < 75 mg/kg/day | NOAEL (mouse [11]): < 75 mg/kg/day | LEL (rat [12]; [28]): 0.2 mg/kg/day | NEL (rat [12]; [28]): < 0.2 mg/kg/day | LOAEL (rat [12]; [29]): 2 mg/kg/day | NOAEL (rat [12]; [29]): 0.6 mg/kg/day | LOAEL (rat [13]; [30]): 6 mg/kg/day | NOAEL (rat [13]; [30]): 2 mg/kg/day | LEL (rat [13]; [31]): 2 mg/kg/day | NEL (rat [13]; [31]): < 2 mg/kg/day | LEL (dog [14]): 4.17 mg/kg/day | LOAEL (dog [14]): 4.17 mg/kg/day | NEL (dog [14]): < 4.17 mg/kg/day | NOAEL (dog [14]): < 4.17 mg/kg/day | NEL (rat [15]; [32]): 4.17 mg/kg/day | NOAEL (rat [15]; [32]): 4.17 mg/kg/day | LEL (rat [15]; [33]): 25 mg/kg/day | LOAEL (rat [15]; [33]): 25 mg/kg/day

CC(Cl)CCl (stereo not drawn) [1,2-Dichloropropane]
LEL (mouse [16]): 30 mg/kg/day | LOAEL (mouse [16]): 500 mg/kg/day | NEL (mouse [16]): < 30 mg/kg/day | NOAEL (mouse [16]): 250 mg/kg/day | LOAEL (mouse [17]; systemic / pathology microscopic / liver / hypertrophy + systemic / pathology microscopic / liver / necrosis): 250 mg/kg/day | LEL (mouse [17]; [34]): 125 mg/kg/day | NEL (mouse [17]; [34]): < 125 mg/kg/day | NOAEL (mouse [17]; [34]): 125 mg/kg/day | LEL (rat [18]; systemic / in life observation / body weight / body weight + systemic / in life observation / mortality / mortality): 500 mg/kg/day | LOAEL (rat [18]; [35]): > 1000 mg/kg/day | NEL (rat [18]; [35]): 250 mg/kg/day | NOAEL (rat [18]; [35]): ≥ 1000 mg/kg/day | LEL (rat [19]): 62 mg/kg/day | LOAEL (rat [19]): 125 mg/kg/day | NEL (rat [19]): < 62 mg/kg/day
